Data: US20210300859A1, “ROSMARINIC ACID DERIVATIVE OR SALT THEREOF” (KAO CORPORATION, priority 2018, published 2021)

Target: T1, human TRPV4 (Homo sapiens, UniProt Q9HBA0)
T1 construct: expressed in transfected cells; host or cells: HeLa cells, transient transfection with a pcDNA 3.1 Directional TOPO vector
Assay: Evaluation of TRPV4 activity-inhibiting action: intracellular calcium ion influx rate in human TRPV4-expressing HeLa cells stimulated with GSK1016790a (Fluo 4)
Type: cell-based
Conditions: for Intracellular Ca^2+ influx rate (%): GSK + DMSO defined as 100%, n = 3, Mean ± S.E.; for calcium ion influx into cells by a TRPV4 agonist (result in words): concentration-dependent, 100 and 300 μM, vs GSK1016790a + DMSO, Dunnett's test
Description: HeLa cells were cultured using a DMEM/F12 medium containing 10% fetal bovine serum. The HeLa cells were seeded in a T-75 cell culture flask at 5×10^5 cells/flask. The cells were cultured for 3 days, were then transfected with the human TRPV4 gene expression vector (8 μg) produced in the above (2) using TransIT-HeLaMONSTER Transfection Kit, and were cultured for 1 day.
The cells were detached with Detachin, were seeded in a 96-well optical bottom plate containing a DMEM/F12 medium containing 10% fetal bovine serum at a cell density of 1.5×10^4 cells/90 μL/well, and were further cultured for 1 day.
The intracellular calcium ion influx rate was measured using Calcium Kit II-fluo 4. Loading buffer containing Fluo 4-AM and Hanks' balanced salt solution were mixed at 1:1 and were then added to the human TRPV4-expressing cells produced in the above (3) at 180 μL/well, followed by incubation at 37° C. for 1 hour. Subsequently, the fluorescence intensity (excitation wavelength: 488 nm, fluorescence wavelength: 524 nm) was measured every 2 seconds at 37° C. using a fluorescence plate reader FDSS3000 (Hamamatsu Photonics K.K.). 30 seconds after the start of the measurement, GSK1016790a as a TRPV4 agonist and the 4-O-methyl-rosmarinic acid or 3,4′-di-O-methyl-rosmarinic acid solution prepared in the above Manufacturing Example as a sample were each diluted with Hanks' balanced salt solution, and a mixture solution thereof (mixed immediately before the addition) was added at 20 μL/well. The change in fluorescence intensity was measured every 2 seconds for 300 seconds. GSK1016790a was added to give a final concentration of 3 nM.
In addition, as a positive control for TRPV4 activity inhibition, HC067047, which is a TRPV4 antagonist, was added at a final concentration of 10 μM. 4-O-Methyl-rosmarinic acid, 3,4′-di-O-methyl-rosmarinic acid, GSK1016790a, and HC067047 were all used by dissolving in dimethyl sulfoxide (DMSO).
The TRPV4 activity of a sample was calculated by the following expression, and the intracellular calcium ion influx rate due to the treatment with a TRPV4 agonist, GSK1016790a, was defined as 100%.
Intracellular calcium ion influx rate (%)=[(F max/F0)−(F max C2/F0C2)]/[(F max C1/F0C1)−(F max C2/F0C2)]×100
F max: Maximum fluorescence intensity of the well containing GSK1016790a and a sample in the period from 0 to 300 seconds after the start of the measurement,
F max C1: Maximum fluorescence intensity of the well containing GSK1016790a and a solvent in the period from 0 to 300 seconds after the start of the measurement,
F max C2: Maximum fluorescence intensity of the well containing only a solvent in the period from 0 to 300 seconds after the start of the measurement,
F0: Fluorescence intensity of the well of F max immediately after the start of the measurement,
F0C1: Fluorescence intensity of the well of F max C1 immediately after the start of the measurement, and
F0C2: Fluorescence intensity of the well containing only a solvent immediately after the start of the measurement.
The intracellular calcium ion influx rate (each group, n=3) when a sample was added was compared to that when GSK1016790a and a solvent (DMSO) were added and was examined by a Dunnett's test. […] The results are expressed as the mean value (Mean)±standard error (S.E.).

[1] = sample 100 μM with GSK1016790a 3 nM
[2] = sample 300 μM with GSK1016790a 3 nM

T1 sequence (Q9HBA0 whole entry): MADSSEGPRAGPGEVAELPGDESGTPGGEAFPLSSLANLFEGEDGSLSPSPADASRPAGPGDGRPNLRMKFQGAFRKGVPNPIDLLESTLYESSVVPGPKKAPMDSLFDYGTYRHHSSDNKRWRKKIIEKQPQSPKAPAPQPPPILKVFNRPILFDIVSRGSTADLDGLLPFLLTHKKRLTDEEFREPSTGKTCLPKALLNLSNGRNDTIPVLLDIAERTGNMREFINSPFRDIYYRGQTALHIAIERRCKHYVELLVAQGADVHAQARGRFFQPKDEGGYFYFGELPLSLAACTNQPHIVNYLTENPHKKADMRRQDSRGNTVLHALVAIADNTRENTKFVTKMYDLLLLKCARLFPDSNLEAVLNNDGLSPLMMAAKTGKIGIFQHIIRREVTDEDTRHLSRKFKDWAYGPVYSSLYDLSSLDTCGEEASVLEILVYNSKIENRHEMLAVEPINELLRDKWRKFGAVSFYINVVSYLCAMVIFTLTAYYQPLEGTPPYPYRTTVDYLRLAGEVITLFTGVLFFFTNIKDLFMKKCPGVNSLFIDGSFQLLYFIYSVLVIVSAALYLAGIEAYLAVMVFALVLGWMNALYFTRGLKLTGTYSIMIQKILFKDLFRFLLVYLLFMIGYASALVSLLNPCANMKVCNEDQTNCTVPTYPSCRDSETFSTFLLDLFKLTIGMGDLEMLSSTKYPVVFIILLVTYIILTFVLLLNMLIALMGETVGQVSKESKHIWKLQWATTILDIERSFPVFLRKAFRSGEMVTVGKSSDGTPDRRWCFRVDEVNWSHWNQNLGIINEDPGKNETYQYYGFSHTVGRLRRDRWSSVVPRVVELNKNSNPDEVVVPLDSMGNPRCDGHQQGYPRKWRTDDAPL

| Structure (SMILES) | Intracellular Ca^2+ influx rate (%) (sample 10 μM with GSK1016790a 3 nM) | calcium ion influx into cells by a TRPV4 agonist (result in words) | Intracellular Ca^2+ influx rate (%) [1] | Intracellular Ca^2+ influx rate (%) [2] |
| --- | --- | --- | --- | --- |
| Cc1c(C(=O)Nc2cccc(C(F)(F)F)c2)cc(-c2ccccc2)n1CCCN1CCOCC1 [HC067047, reference compound] | 2.46 ± 0.14 (P < 0.001) % | – | – | – |
| COc1ccc(/C=C/C(=O)OC(Cc2ccc(O)c(OC)c2)C(=O)O)cc1O (stereo not shown) [3,4′-DiMe-RA, (E)-3-(4-hydroxy-3-methoxyphenyl)-2-{[3-(3-hydroxy-4-methoxyphenyl)acryloyl]oxy}propionic acid] | – | significantly decreased | 78.81 ± 1.73 (P < 0.001) % | 71.25 ± 5.52 (P < 0..001) % |
| COc1ccc(CC(OC(=O)/C=C/c2ccc(O)c(O)c2)C(=O)O)cc1O (stereo not shown) [4-Me-RA, (E)-3-(3-hydroxy-4-methoxyphenyl)-2-{[3-(3,4-dihydroxyphenyl)acryloyl]oxy}propionic acid] | – | significantly decreased | 92.65 ± 0.89 (N.S.) % | 82.90 ± 3.04 (P < 0.01) % |
